Assays:
Assay type in all cases: cell-based, Human
[1] = system: ACHN (kidney cancer); assay: Test for inhibition of tumor cell growth (SRB), ACHN; details: 48 hours, SRB staining; for GI50: Homo sapiens, ACHN
Protocol: (§1) Human tumor cell lines, PC-3 (prostate cancer, ATCC, USA), MBA-MB-231 (breast cancer, ATCC, USA), ACHN (kidney cancer, ATCC, USA), and NUGC-3 (gastric cancer, ATCC, USA) were cultured in RPMI 1640 media containing 10% fetal bovine serum (FBS).
(§2) In order to measure anticancer activity, a suitable concentration of cells in RPMI 1640 media containing 5% fetal bovine serum (about 5×10^4 cells/□) was aliquotted in 96-well plates, and cultured in 5% CO2 at 37° C. On day one after aliquoting the cells, before the cells were treated with the compounds, in order to determine their concentration, 50[…] of 50% trichloroacetic acid was added to each well of time zero (T0) plate, and cells were fixed to determine zero point. The cells treated with the compounds were fixed on each well having 50[…] of 50% trichloroacetic acid after 48 hours. The final concentrations of the test compounds were 0.01, 0.03, 0.1, 0.3, and 1[…]/□. The fixed plate was washed with water and dried, and then 100[…] of 0.4% sulphorhodamine B (SRB) dissolved in 0.1% acetic acid was added to the each well to stain the cells. The plate was allowed to stand for 30 minutes, and then washed with 0.1% acetic acid. Then, the plate was dried at room temperature, and treated with 10 mM tris base (pH 10.5) to dissolve staining reagent. An absorbance measured at 540 nm was calculated as a percentage of the control group, and then the concentration of the compound that inhibited tumor cell growth (GI50(□/□)) by 50% was determined.

[2] = system: NUGC-3 (gastric cancer); assay: Test for inhibition of tumor cell growth (SRB), NUGC-3; details: 48 hours, SRB staining; for GI50: Homo sapiens, NUGC-3
Protocol: as §1, §2

[3] = system: PC-3 (prostate cancer); assay: Test for inhibition of tumor cell growth (SRB), PC-3; details: 48 hours, SRB staining; for GI50: Homo sapiens, read-out: GI50 PC-3 (prostate ancer)
Protocol: as §1, §2

[4] = system: MBA-MB-231 (breast cancer); assay: Test for inhibition of tumor cell growth (SRB), MBA-MB-231; details: 48 hours, SRB staining; for GI50: Homo sapiens
Protocol: as §1, §2

SMILES: CCCCCCCCCCCCCCCCCCCC(=O)N1CC[N+](C)(C)CC1 [Example 31, 4-icosanoyl-1,1-dimethylpiperazin-1-ium iodide]
- GI50 [1]: 1.39 µg/mL
- GI50 [2]: 0.42 µg/mL
- GI50 [3]: 0.31 µg/mL
- GI50 [4]: 1.63 µg/mL

SMILES: CCCCCCCCCCCCCCCCCCCC(=O)N1CC[N+](C)(Cc2ccccc2)CC1 [Example 32, 1-benzyl-4-icosanoyl-1-methylpiperazin-1-ium bromide]
- GI50 [1]: 1.89 µg/mL
- GI50 [2]: 1.1 µg/mL
- GI50 [3]: 0.59 µg/mL
- GI50 [4]: 1.66 µg/mL

SMILES: C=CC[N+]1(C)CCN(C(=O)CCCCCCCCCCCCCCCCCCC)CC1 [Example 33, 1-allyl-4-icosanoyl-1-methylpiperazin-1-ium bromide]
- GI50 [1]: > 10 µg/mL
- GI50 [2]: 3.45 µg/mL
- GI50 [3]: 4.29 µg/mL
- GI50 [4]: > 10 µg/mL

SMILES: CCCCCCCCCCCCCCCCCCCCCC(=O)N1CC[N+](C)(CC)CC1 [Example 34, 4-docosanoyl-1-ethyl-1-methylpiperazin-1-ium iodide]
- GI50 [1]: 1.9 µg/mL
- GI50 [2]: 1.22 µg/mL
- GI50 [3]: 0.85 µg/mL
- GI50 [4]: 2.01 µg/mL

SMILES: CCCCCCCCCCCCCCCCCCCCCC(=O)N1CC[N+](C)(Cc2ccccc2)CC1 [Example 35, 1-benzyl-4-docosanoyl-1-methylpiperazin-1-ium bromide]
- GI50 [1]: 4.74 µg/mL
- GI50 [2]: 1.9 µg/mL
- GI50 [3]: 1.24 µg/mL
- GI50 [4]: 1.98 µg/mL

SMILES: C=CC[N+]1(C)CCN(C(=O)CCCCCCCCCCCCCCCCCCCCC)CC1 [Example 36, 1-allyl-4-docosanoyl-1-methylpiperazin-1-ium bromide]
- GI50 [1]: 2.37 µg/mL
- GI50 [2]: 1.53 µg/mL
- GI50 [3]: 0.96 µg/mL
- GI50 [4]: 3.16 µg/mL

SMILES: CCCCCCCCCCCCCCCCCCCCCC(=O)N1CC[N+](CC)(Cc2ccccc2)CC1 [Example 37, 1-benzyl-4-docosanoyl-1-ethylpiperazin-1-ium bromide]
- GI50 [1]: > 10 µg/mL
- GI50 [2]: > 10 µg/mL
- GI50 [3]: > 10 µg/mL
- GI50 [4]: > 10 µg/mL

SMILES: C=CC[N+]1(CC)CCN(C(=O)CCCCCCCCCCCCCCCCCCCCC)CC1 [Example 38, 1-allyl-4-docosanoyl-1-ethylpiperazin-1-ium bromide]
- GI50 [1]: 3.38 µg/mL
- GI50 [2]: 1.54 µg/mL
- GI50 [3]: 1.47 µg/mL
- GI50 [4]: 2.53 µg/mL

SMILES: CCCCCCCCCCCCCCCCCCCCCCCC(=O)N1CC[N+](C)(Cc2ccccc2)CC1 [Example 40, 1-benzyl-1-methyl-4-tetracosanoylpiperazin-1-ium bromide]
- GI50 [1]: > 10 µg/mL
- GI50 [2]: > 10 µg/mL
- GI50 [3]: 4.79 µg/mL
- GI50 [4]: > 10 µg/mL

SMILES: C=CC[N+]1(C)CCN(C(=O)CCCCCCCCCCCCCCCCCCCCCCC)CC1 [Example 41, 1-allyl-1-methyl-4-tetracosanoylpiperazin-1-ium bromide]
- GI50 [1]: > 10 µg/mL
- GI50 [2]: > 10 µg/mL
- GI50 [3]: 3.36 µg/mL
- GI50 [4]: > 10 µg/mL

SMILES: CCCCCCCCCCCCCCCCCCCCCCCC(=O)N1CC[N+](C)(CC)CC1 [Example 42, 1-ethyl-1-methyl-4-tetracosanoylpiperazin-1-ium iodide]
- GI50 [1]: > 10 µg/mL
- GI50 [2]: > 10 µg/mL
- GI50 [3]: 3.77 µg/mL
- GI50 [4]: > 10 µg/mL

SMILES: C=CCCCCCCCCC(=O)N1CC[N+](C)(CC=C)CC1 [Example 43, 1-allyl-1-methyl-4-undec-10-enoyl-piperazin-1-ium bromide]
- GI50 [1]: > 10 µg/mL
- GI50 [2]: > 10 µg/mL
- GI50 [3]: 1.32 µg/mL
- GI50 [4]: > 10 µg/mL

SMILES: C=CCCCCCCCCC(=O)N1CC[N+](C)(Cc2ccccc2)CC1 [Example 44, 1-benzyl-1-methyl-4-undec-10-enoyl-piperazin-1-ium bromide]
- GI50 [1]: > 10 µg/mL
- GI50 [2]: > 10 µg/mL
- GI50 [3]: 0.41 µg/mL
- GI50 [4]: > 10 µg/mL

SMILES: C=CCCCCCCCCC(=O)N1CC[N+](C)(C)CC1 [Example 45, 1,1-dimethyl-4-undec-10-enoyl-piperazin-1-ium iodide]
- GI50 [1]: > 10 µg/mL
- GI50 [2]: > 10 µg/mL
- GI50 [3]: 2.02 µg/mL
- GI50 [4]: > 10 µg/mL

SMILES: CCCCCCCCCCCCCCCC(=O)N1CC[N+](CC)(Cc2cccc([N+](=O)[O-])c2)CC1 [Example 47, 1-ethyl-1-(3-nitrobenzyl)-4-palmitoylpiperazin-1-ium bromide]
- GI50 [1]: 5.13 µg/mL
- GI50 [2]: 3.64 µg/mL
- GI50 [3]: 4.57 µg/mL
- GI50 [4]: > 10 µg/mL

SMILES: CCCCCCCCCCCCCCCCCC(=O)N1CC[N+](CC)(Cc2ccc(F)cc2)CC1 [Example 48, 1-ethyl-1-(4-fluorobenzyl)-4-stearoylpiperazin-1-ium bromide]
- GI50 [1]: 1.43 µg/mL
- GI50 [2]: 1.19 µg/mL
- GI50 [3]: 0.68 µg/mL
- GI50 [4]: 1.49 µg/mL

SMILES: CCCCCCCCCCCCCCCCCC(=O)N1CC[N+](CC)(Cc2cccc([N+](=O)[O-])c2)CC1 [Example 49, 1-ethyl-1-(3-nitrobenzyl)-4-stearoylpiperazin-1-ium bromide]
- GI50 [1]: 3.08 µg/mL
- GI50 [2]: 3.63 µg/mL
- GI50 [3]: 3.14 µg/mL
- GI50 [4]: 5.38 µg/mL

SMILES: CCCCCCCCCCCCCCCCCC(=O)N1CC[N+](CC)(Cc2ccc(Br)cc2)CC1 [Example 50, 1-(4-bromobenzyl)-1-ethyl-4-stearoylpiperazin-1-ium bromide]
- GI50 [1]: 1.94 µg/mL
- GI50 [2]: 2.49 µg/mL
- GI50 [3]: 0.95 µg/mL
- GI50 [4]: 2.3 µg/mL

SMILES: CCCCCCCCCCCCCC(=O)N1CC[N+](CC)(Cc2cccc(F)c2)CC1 [Example 51, 1-ethyl-1-(3-fluorobenzyl)-4-tetradecanoylpiperazin-1-ium bromide]
- GI50 [1]: 1.85 µg/mL
- GI50 [2]: 1.05 µg/mL
- GI50 [3]: 0.52 µg/mL
- GI50 [4]: 1.42 µg/mL

SMILES: CCCCCCCCCCCCCC(=O)N1CC[N+](CC)(Cc2cccc(C)c2)CC1 [Example 52, 1-ethyl-1-(3-methylbenzyl)-4-tetradecanoylpiperazin-1-ium bromide]
- GI50 [1]: 2.08 µg/mL
- GI50 [2]: 0.88 µg/mL
- GI50 [3]: 0.51 µg/mL
- GI50 [4]: 1.6 µg/mL

SMILES: CCCCCCCCCCCC(=O)N1CC[N+](CC)(Cc2cccc([N+](=O)[O-])c2)CC1 [Example 53, 4-dodecanoyl-1-ethyl-1-(3-nitrobenzyl)piperazin-1-ium bromide]
- GI50 [1]: 4.84 µg/mL
- GI50 [2]: 3.52 µg/mL
- GI50 [3]: 0.57 µg/mL
- GI50 [4]: 3.95 µg/mL

SMILES: CCCCCCCCCCCC(=O)N1CC[N+](CC)(Cc2cccc(F)c2)CC1.[Br-] [Example 54]
- GI50 ACHN (kidney cancer) [1]: 3.78 µg/mL
- GI50 NUGC-3 (gastric cancer) [2]: 1.61 µg/mL
- GI50 PC-3 (prostate ancer) [3]: 0.53 µg/mL
- GI50 MBA-MB-231 (breast cancer) [4]: 4.71 µg/mL

SMILES: CCCCCCCCCCCCCCCCCC(=O)N1CC[N+](CC)(Cc2cccc(C)c2)CC1 [Example 58, 1-ethyl-1-(3-methylbenzyl)-4-stearoylpiperazin-1-ium bromide]
- GI50 [1]: 0.93 µg/mL
- GI50 [2]: 0.46 µg/mL
- GI50 [3]: 0.63 µg/mL
- GI50 [4]: 1.52 µg/mL

SMILES: CCCCCCCCCCCCCCCCCCS(=O)(=O)N1CC[N+](C)(CC)CC1 [Example 59, 1-ethyl-1-methyl-4-(octadecane-1-sulfonyl)piperazin-1-ium iodide]
- GI50 [1]: 1.07 µg/mL
- GI50 [2]: 0.66 µg/mL
- GI50 [3]: 0.84 µg/mL
- GI50 [4]: 2.05 µg/mL

SMILES: C=CC[N+]1(CC)CCN(S(=O)(=O)CCCCCCCC)CC1 [Example 60, 1-allyl-1-ethyl-4-(octane-1-sulfonyl)piperazin-1-ium bromide]
- GI50 [1]: > 10 µg/mL
- GI50 [2]: > 10 µg/mL
- GI50 [3]: > 10 µg/mL
- GI50 [4]: > 10 µg/mL

SMILES: C=CC[N+]1(C)CCN(S(=O)(=O)CCCCCCCC)CC1 [Example 61, 1-allyl-1-methyl-4-(octane-1-sulfonyl)piperazin-1-ium bromide]
- GI50 [1]: > 10 µg/mL
- GI50 [2]: > 10 µg/mL
- GI50 [3]: > 10 µg/mL
- GI50 [4]: > 10 µg/mL
